Tests used:
ALS patients = assay: Case studies, amyotrophic lateral sclerosis (ALS) patients; assay type: in vivo, human
From the text: The results were documented by video.

[1] = test system: Lewy Body dementia patient; assay: Case study, Lewy Body dementia; assay type: in vivo, human
Procedure: The patient started taking acetyl-leucine (3 g/day for one week; 5 g/day thereafter) and was evaluated after four weeks. […] Medication was reduced to 3 g/day, and the patient was instructed to stop medication about two weeks later.

MSA-P patients [2] = assay: Case studies, multiple system atrophy Parkinson type (MSA-P) patients; assay type: in vivo, human
From the text: Medication was stopped. […] The patient evaluated after one month on acetyl-DL-leucine. […] Episodes of mental confusion completely disappeared. The patient's cognitive structure seemed much clearer and straighter. […] The patient's spouse supported continuing the medication.

[3] = test system: Aspartylglucosaminuria patient fibroblasts; assay: Lysosomal volume via LysoTracker, Aspartylglucosaminuria fibroblasts; assay type: cell-based, human; details: 1 mM, 6 days
[4] = test system: ataxia with oculomotor apraxia type 4 patients; assay: Case study, ataxia with oculomotor apraxia type 4; assay type: in vivo, human; details: AOA4 youngest sibling; on treatment
From the text: In this case study, four patients (male siblings) suffered from, and were later diagnosed with, ataxia with oculomotor apraxia type 4. The older three siblings […], at the time of disease onset. […] The older siblings began treatment with acetyl-leucine […], respectively, and have been on the treatment for approximately four years. No long-term clinical data is available for these three patients.
The youngest sibling was […] at the time of onset. […] No long-term clinical data is available for the youngest sibling.

MSA-P patients [5] = assay: Case studies, multiple system atrophy Parkinson type (MSA-P) patients; assay type: in vivo, human; details: MSA-P Patient 1; 6 weeks later
[6] = test system: AB variant of Tay-Sachs disease patient fibroblasts; assay: Glycosphingolipid (GSL) levels by HPLC, AB variant fibroblasts; assay type: cell-based, human; details: 1 mM for 6 days
Npc1−/− mice = assay: Coat condition of Npc1−/− mice; assay type: in vivo, mouse; details: 0.1 g/kg in chow from weaning, nine weeks of age
From the text: Separate groups of Npc1^-/- and Npc1^+/+ mice were left untreated, as controls.

[7] = test system: Sandhoff disease patient fibroblasts; assay: Glycosphingolipid (GSL) levels by HPLC, Sandhoff fibroblasts; assay type: cell-based, human; details: 1 mM for 6 days
[8] = test system: Hexb−/− mouse (Sandhoff disease model); assay: Step cycle, Sandhoff mouse; assay type: in vivo; details: Sandhoff mice, 0.1 g/kg from 3 weeks of age, 12 weeks of age
Procedure: Step cycle is the length of time taken during locomotion by a limb from the time it leaves the ground until it leaves the ground on the next occasion. Step cycle time was assessed at 12 weeks of age in untreated and acetyl-leucine treated Sandhoff model mice. Acetyl-leucine treatment constituted 0.1 g/kg body weight acetyl-leucine from 3 weeks of age.

Npc1−/− mouse = assay: Lifespan and symptom onset of Npc1−/− mouse; assay type: in vivo
From the text: Separate groups of Npc1^−/− and Npc1^+/+ mice were left untreated, as controls.

[9] = test system: frontotemporal dementia with parkinsonism patient; assay: Case study, frontotemporal dementia with parkinsonism; assay type: in vivo, human; details: frontotemporal dementia with parkinsonism
From the text: After approximately one month of acetyl-leucine treatment, medication was stopped and the patient was re-examined 13 days later.

MSA-C patients = assay: Case studies, multisystemic atrophy cerebellar type (MSA-C) patients; assay type: in vivo, human
[10] = ALS Patient 1, after a further 20 days
[11] = after 1 week on acetyl-DL-leucine
[12] = after 4 weeks on acetyl-DL-leucine
[13] = MSA-P Patient 2, after 1 month of treatment
[14] = MSA-P Patient 2, after 1 month without treatment
[15] = MSA-P Patient 2, after 2 months without treatment
[16] = MSA-C Patient 3, after 20 days of re-suspending treatment
[17] = MSA-C Patient 3, after 27 days of treatment
[18] = MSA-C Patient 3, shortly after commencing treatment

With CC(=O)NC(CC(C)C)C(=O)O (racemic) [acetyl-DL-leucine] the Overall symptoms (ALS patients; ALS Patient 1) was “improvement in symptoms”, the “Speech (patient report)” value (ALS patients; ALS Patient 1, 5 gram per day, after 15 days of treatment) was “significant improvement of speech” and the “Speech after stopping treatment” value (ALS patients; ALS Patient 1, about 7 days plus 1-2 additional weeks off treatment) was “deterioration of speech”. For the same compound, the “Paresis of the right foot-dorsiflexors and foot drop” value (ALS patients; [10]) was “improved dramatically and were clinically hardly detectable”, the “Sleep (patient report)” value (ALS patients; [10]) was “improvement in sleep” and the “Speech (patient report)” value (ALS patients; [10]) was “further improvement of speech”. For the same compound, the “Symptomatology after resuming treatment” value (ALS patients; ALS Patient 1, second resumption) was “improved symptomatology, in particular speech”, the Clinical observation (ALS patients; ALS Patient 2, 5 g per day, after approximately 2 months) was “progredient deterioration of the motor function of the left hand, but a discrete improvement of walking” and the Swallowing functions (ALS patients; ALS Patient 2, after approximately 2 months) was “remained stable”. The Symptomatology (ALS patients; ALS Patient 3, 5 g per day, after one month) was “did not report improvement of symptomatology”, the Clinical observation (ALS patients; ALS Patient 4, 5 g per day, after about one month) was “subjective improvement of dysphagia and less hypersalivation” and the Symptomatology after suspension (ALS patients; ALS Patient 4, 10 days after therapy was suspended) was “worsening of symptomatology”. For the same compound, the ALS-FRS score (ALS patients; ALS Patient 4, about 8 weeks after resuming continuous treatment, before treatment 44/48) was 43/48, the Patient report ([1]; 5 g/day, after four weeks) was “increased fatigue and a deterioration of balance and speech” and the “Coefficient of variation (temporal)” value [1, 11] was 9.1. It also gave a Double stance [1, 11] of 36.1%, a Max. speed [1, 11] of 92 cm/s and a Step cycle length [1, 11] of 81 cm. It also gave a Track width [1, 11] of 4.6 cm, a cadence [1, 11] of 81 steps/minute and a speed [1, 11] of 55 cm/s. The “Coefficient of variation (temporal)” value [1, 12] was 8.8, the Double stance [1, 12] was 38.7% and the “Functional Gait Assessment” value [1, 12] was 11/30. For the same compound, the Max. speed [1, 12] was 74 cm/s, the Step cycle length [1, 12] was 79 cm and the Track width [1, 12] was 6.7 cm. For the same compound, the cadence [1, 12] was 85 steps/minute, the speed [1, 12] was 56 cm/s and the Patient report ([1]; decreased dose 3 g/day, re-evaluated about one month after ceasing) was “did not report improvement of symptomatology”. For the same compound, the Clinical observation (MSA-P patients [2]; MSA-P Patient 1, 5 g/day, after 3 weeks) was “no significant improvement of gait, reduction of falls or improved hypokinetic rigid-syndrome”, the Clinical observation (MSA-P patients [2]; MSA-P Patient 2, 5 g per day, after one month of treatment) was “subjective improvement of dizziness” and the “Coefficient of variation (temporal)” value (MSA-P patients [2]; [13]) was 2.7. For the same compound, the Double stance (MSA-P patients [2]; [13]) was 25.6%, the “Functional Gait Assessment” value (MSA-P patients [2]; [13]) was 24/30 and the Max. speed (MSA-P patients [2]; [13]) was 214 cm/s. It also gave a Step cycle length (MSA-P patients [2]; [13]) of 120 cm, a Track width (MSA-P patients [2]; [13]) of 3.8 cm and a cadence (MSA-P patients [2]; [13]) of 109 steps/minute. For the same compound, the speed (MSA-P patients [2]; [13]) was 109 cm/s, the “Coefficient of variation (temporal)” value (MSA-P patients [2]; [14]) was 1.7 and the Double stance (MSA-P patients [2]; [14]) was 22.5%. For the same compound, the “Functional Gait Assessment” value (MSA-P patients [2]; [14]) was 25/30, the Max. speed (MSA-P patients [2]; [14]) was 196 cm/s and the Step cycle length (MSA-P patients [2]; [14]) was 126 cm. The Track width (MSA-P patients [2]; [14]) was 2.3 cm, the cadence (MSA-P patients [2]; [14]) was 109 steps/minute and the speed (MSA-P patients [2]; [14]) was 114 cm/s. The “Coefficient of variation (temporal)” value (MSA-P patients [2]; [15]) was 2.1, the Double stance (MSA-P patients [2]; [15]) was 26.7% and the “Functional Gait Assessment” value (MSA-P patients [2]; [15]) was 22/30. It also gave a Max. speed (MSA-P patients [2]; [15]) of 177 cm/s, a Step cycle length (MSA-P patients [2]; [15]) of 107 cm and a Track width (MSA-P patients [2]; [15]) of 3.4 cm. The cadence (MSA-P patients [2]; [15]) was 106 steps/minute, the speed (MSA-P patients [2]; [15]) was 94 cm/s and the Symptoms without medication (MSA-P patients [2]; MSA-P Patient 2, after two months without medication) was “worsening of general symptomatology”. The “Cognitive function (wife's report)” value (MSA-P patients [2]; MSA-P Patient 3, 5 g per day, after one month) was “significant improvement of cognitive function”, the Gait function (MSA-P patients [2]; MSA-P Patient 3, after one month) was “no improvement of gait function” and the “LysoTracker fluorescence relative to untreated disease fibroblasts” value [3] was “trend in reducing LysoTracker fluorescence”. For the same compound, the “Mother's report compared to older siblings at each age” value [4] was “improved fine motor skills and improved speech”, the “Symptoms after stopping medication” value (MSA-P patients [5]) was “did not report deterioration of symptoms” and the GSL levels [6] was “trend towards decreased GSL levels”. For the same compound, the Coat condition (Npc1−/− mice) was “smooth and glossy coat”, the GSL levels [7] was “trend towards decreased GSL levels” and the “Average step cycle time” value ([8]; p<0.001 vs untreated) was “significantly faster average step cycle times”. For the same compound, the “Hind step cycle time” value ([8]; p<0.01 vs untreated) was “significantly faster hind step cycle times”, the “Front step cycle time” value ([8]; p<0.05 vs untreated) was “significantly faster front step cycle times” and the “Delay of discernible indication of disease vs untreated Npc1−/− mice” value (Npc1−/− mouse; Npc1−/− mice treated from weaning) was “two”. The Lifespan (Npc1−/− mouse; Npc1−/− mouse, 0.1 g/kg from 3 weeks of age) was “statistically significant increase in lifespan”, the Gait ([9]; 5 gram per day, approximately one month of treatment) was “significant improvement of gait” and the “Symptoms after suspension of treatment” value ([9]; re-examined 13 days after stopping) was “symptoms worsened”. For the same compound, the Speech ([9]; under therapy) was “improvement of speech”, the Falls ([9]; under therapy, before 2-3 falls per month) was “falls stopped” and the Speech (MSA-C patients; MSA-C Patient 1, 5 g per day, after one week) was “significant improvement in speech”. The Falls (MSA-C patients; MSA-C Patient 2, after 3 weeks, before approximately 10 falls a month) was “falls completely stopped”, the “Symptoms after stopping medication” value (MSA-C patients; MSA-C Patient 2, one week after stopping) was “deterioration of gait and dizziness” and the “Symptoms after stopping medication again” value (MSA-C patients; MSA-C Patient 2, two days after stopping, following a further 40 days of treatment) was “progressive deterioration of gait and dizziness”. For the same compound, the Gait (MSA-C patients; MSA-C Patient 2, up to 5 gram per day, after 3 weeks) was “significant improvement of gait”, the speed (MSA-C patients; MSA-C Patient 3, 5 gram per day, after 27 days of treatment) was 106 cm/s and the “Coefficient of variation (temporal)” value (MSA-C patients; [16]) was 2.5. The Double stance (MSA-C patients; [16]) was 27.1%, the “Functional Gait Assessment” value (MSA-C patients; [16]) was 22/30 and the Max. speed (MSA-C patients; [16]) was 197 cm/s. The Step cycle length (MSA-C patients; [16]) was 115 cm, the Track width (MSA-C patients; [16]) was 17.5 cm and the cadence (MSA-C patients; [16]) was 112 steps/minute. For the same compound, the speed (MSA-C patients; [16]) was 106 cm/s, the “Coefficient of variation (temporal)” value (MSA-C patients; [17]) was 3.1 and the Double stance (MSA-C patients; [17]) was 27.3%. For the same compound, the “Functional Gait Assessment” value (MSA-C patients; [17]) was 20/30, the Max. speed (MSA-C patients; [17]) was 208 cm/s and the Step cycle length (MSA-C patients; [17]) was 113 cm. For the same compound, the Track width (MSA-C patients; [17]) was 14.6 cm, the cadence (MSA-C patients; [17]) was 113 steps/minute and the “Gait analysis (summary)” value (MSA-C patients; MSA-C Patient 3, after one month of treatment) was “improvement of gait speed, and reductions of track width and gait fluctuations”. The “Symptoms after stopping medication” value (MSA-C patients; MSA-C Patient 3, approximately two to three weeks after stopping) was “progressive deterioration of gait and dizziness”, the “Coefficient of variation (temporal)” value (MSA-C patients; [18]) was 3.3 and the Double stance (MSA-C patients; [18]) was 32.5%. The “Functional Gait Assessment” value (MSA-C patients; [18]) was 21/30, the Max. speed (MSA-C patients; [18]) was 183 cm/s and the Step cycle length (MSA-C patients; [18]) was 87 cm. For the same compound, the Track width (MSA-C patients; [18]) was 16.8 cm, the cadence (MSA-C patients; [18]) was 101 steps/minute and the speed (MSA-C patients; [18]) was 72 cm/s.

Source: US11793782B2, “Therapeutic agents for neurodegenerative diseases” (priority 2017, dated 2023)
